Source: patent US7371780B2, “Use of calphostin C to treat drug-resistant tumor cells” (priority 2003, dated 2008)

What was measured:
MCF-7TAX cells [1] = experiment: Flow cytometric sub-G1 DNA content, MCF-7TAX; assay type: cell-based, human; details: 100 nM calphostin C, 2 h light
Method: (§1) For flow cytometric analysis, cells at about 50% to 60% confluence were released from their flasks by trypsin treatment and washed with PBS. After centrifugation at 1000 rpm for 5 min, cells were then fixed by resuspension in 75% ethanol for 2 hours, collected by centrifugation, and resuspended in PI staining solution (see above) for 1 h. For each sample, approximately 2×10^4 cells were analyzed using a Beckman Coulter Epics® Elite flow cytometer. Fluorescence intensity upon stimulation with an argon-ion laser at 488 nm was measured using the PMT4 channel (625DL filter) and plotted against cell number. The percentage of cells with a sub-G1 DNA content was determined by the flow cytometer, adjusting the gates such that only cells with a fluorescence lower than the peak for untreated cells in G1 are counted (see FIG. 4).

MCF-7 cells [2] = experiment: Cytoplasmic shrinkage by hematoxylin/eosin staining, MCF-7; assay type: cell-based, human
Method: (§2) For staining with hematoxylin and eosin, cells were grown in a six-well culture plate with each well containing a Snowcoat X-Tra™ microscope slide (Surgipath Laboratories, MB) immersed in 3 ml of H21 medium. When the cells reached 50% confluence, they were treated with 0-300 nM calphostin C, followed by a 2 hour exposure of the cultures to fluorescent light as described above. After light activation, the cells were placed in a 37° C. humidified incubator with 5% CO2 and incubated for an additional 22 hours. The cells were then stained with hematoxylin and eosin using a previously described procedure. Briefly, the media was removed from cell cultures and the cells that remained adhered to the slides were washed with PBS, fixed in formalin:acetone (1:2) for 2 min, and allowed to air dry for 10 min. After washing with distilled water, 250 μl of hematoxylin solution (BDH Chemicals, Toronto, ON) was placed on each slide and allowed to incubate with the cells for 5 min. The slides were then washed with distilled water, Scott's tap water (20 g MgSO4.7H2O, 1.5 g NaHCO3 in 1 L H2O), and a final wash with distilled water. The cells on the slides were then stained for 5 min in 250 μl of eosin solution (100 ml of 1% eosin, 10 ml of 1% phyloxine, 4 ml of glacial acetic acid, and 780 ml of 95% ethanol). The cells were then dehydrated by washing three times in 95% ethanol and twice in 100% ethanol. The small slide was then mounted on a standard microscope glass slide, and 10 randomly selected fields were viewed at 100× magnification and photographed. For each concentration of calphostin C, the total number of dead cells in each field was ascertained and expressed relative to the total number of cells in the field.

MCF-7DOX cells [3] = experiment: Cytoplasmic shrinkage by hematoxylin/eosin staining, MCF-7DOX; assay type: cell-based, human
Method: as §2

MCF-7 cells [4] = experiment: Flow cytometric sub-G1 DNA content, MCF-7; assay type: cell-based, human; details: 100 nM calphostin C, 2 h light
Method: as §1

MCF-7DOX cells [5] = experiment: Flow cytometric sub-G1 DNA content, MCF-7DOX; assay type: cell-based, human; details: 100 nM calphostin C
Method: as §1

[6] = system: mouse B16BL6 melanoma cells; experiment: Death and cytoplasmic vacuolization, B16BL6; assay type: cell-based; details: data not shown
MCF-7 cells [7] = experiment: Drug uptake (flow cytometry / scintillation counting), MCF-7; assay type: cell-based, human; details: 100 nM calphostin C
Method: (§3) FIG. 5 illustrates the effect of calphostin C (Cal-C) on drug uptake in MCF-7 (square symbols), MCF-7TAX (diamond symbols) and MCF-7DOX (triangular symbols) cells. After one-day growth, the cells were left untreated (closed symbols) or treated with 100 nM calphostin C for 2 h with light activation (open symbols). Cells were then washed and the medium replaced with medium containing 2 μM of doxorubicin (A) or [^3H]-paclitaxel (B). The cells were then trypsinized and drug accumulation measured by flow cytometry (A) or liquid scintillation counting (B) at indicated time points. The figures are representative of three independent experiments.

MCF-7DOX cells [8] = experiment: Microscopic cell morphology, MCF-7DOX; assay type: cell-based, human; details: data not shown
Method: For microscopic observation, cells were seeded onto standard glass coverslips in 10 cm tissue culture plates with 10 ml of H21 medium and grown for 2 days until 40-50% confluence was obtained. After treatment with paclitaxel, doxorubicin or calphostin C, the cells on the glass coverslips were washed twice with PBS (2.7 mM KCl, 1.0 mM KH2PO4, 137 mM NaCl, 10 mM Na2HPO4, pH 7.4) and stained with acridine orange/ethidium bromide (each at 4 μg/ml in PBS) for 10 min at 37° C.. The coverslips were then washed three times in PBS and mounted onto standard glass slides for morphological evaluation. For propidium iodide (PI) staining, the cells on coverslips were washed twice with PBS and fixed in methanol (cooled to −20° C.) for 20 min. Thirty μl of propidium iodide (PI) staining solution (100 μg/ml PI, 0.1% sodium citrate, 100 μg/ml RNase A and 0.3% Nonidet P-40) were then applied to the coverslips for 5 min. […] The cells were then examined using a Zeiss Axiovert 100 inverted fluorescence microscope. […] For each sample, the number of dead cells was determined by visualization after ethidium bromide staining, whereby only dead cells which have lost membrane integrity allow entry of cell-impermeable ethidium bromide into cells to complex with DNA and induce bright red fluorescence. […] The images were recorded and overlayed using Northern Eclipse software (Empix Imaging Inc., Mississauga, ON).

MCF-7TAX cells [9] = experiment: Drug uptake, MCF-7TAX; assay type: cell-based, human
Method: as §3

COc1c(C[C@@H](C)OC(=O)Oc2ccc(O)cc2)c2c3c(C[C@@H](C)OC(=O)c4ccccc4)c(OC)c(=O)c4c(O)cc(OC)c(c5c(OC)cc(O)c(c1=O)c52)c43 [calphostin C]
time of strong increase in percentage of sub-G1 cells after treatment (MCF-7TAX cells [1]): 8 h | concentration required for complete cytoplasmic shrinkage (MCF-7 cells [2]): 300 nM | percentage of cells exhibiting cytoplasmic shrinkage (MCF-7 cells [2]; 25 nM calphostin C, 2 h light, 24 h): 20% | percentage of cells exhibiting cytoplasmic shrinkage (MCF-7 cells [2]; 50 nM calphostin C): 35% | concentration at which cytoplasmic shrinkage was first observed (MCF-7DOX cells [3]): 100 nM | concentration required for complete cytoplasmic shrinkage (MCF-7DOX cells [3]): 300 nM | percentage of cells exhibiting cytoplasmic shrinkage (MCF-7DOX cells [3]; 25 nM calphostin C): remained unchanged | time of strong increase in percentage of sub-G1 cells after treatment (MCF-7 cells [4]): 8 h | time of strong increase in percentage of sub-G1 cells after treatment (MCF-7DOX cells [5]; MCF-7ADR (so in the source), 2 h light): 8 h | percentage of cells with sub-G1 DNA content versus similarly treated MCF-7 or MCF-7TAX cells (MCF-7DOX cells [5]; MCF-7DOX): significantly lower | induction of death and cytoplasmic vacuolization [6]: induce both death and cytoplasmic vacuolization | effect on paclitaxel accumulation (MCF-7 cells [7]): decreased paclitaxel accumulation | concentration giving cytoplasmic vacuolization equal to MCF-7 and MCF-7TAX cells at 50 nM (MCF-7DOX cells [8]): 300 nM | effect on doxorubicin uptake (MCF-7TAX cells [9]; 100 nM calphostin C 2 h with light, then 2 μM doxorubicin): little ability to re-establish doxorubicin uptake | effect on paclitaxel uptake (MCF-7TAX cells [9]; 100 nM calphostin C, early time points, back to control by 18 hours): slightly restored
